In paper PMC11651915, “Small molecule protein assembly modulators with pan-cancer therapeutic efficacy” (Open Biology, 2024):

How the values were obtained:
OVCAR-4 = assay: cells; settings: Homo sapiens, OVCAR-4, 48 h
SF-268 = assay: cells; settings: Homo sapiens, SF-268, 48 h
A549 = assay: In-house cancer cell viability screen (AlamarBlue); format: cell-based, human; settings: for IC50: Homo sapiens, AlamarBlue
[1] = system: A549 human lung cancer xenograft; assay: A549 xenograft studies; settings: A549 xenograft, PAV-951 study, 14 days, IV; PAV-951 1.5 mg kg^−1 once daily, Gemcitabine 100 mg kg^−1 twice weekly
EKVX = assay: cells; settings: Homo sapiens, 48 h
NL4-3 Rluc HIV = assay: microbe, parasite or virus in culture; format: cell-based; settings: Human immunodeficiency virus 1, NL43, MT2, 96 h, read-out: EC50 against HIV
SF-295 = assay: cells; settings: Homo sapiens, SF-295, 48 h
786-0 = assay: cells; format: cell-based; settings: Homo sapiens, NCI-60, 48 h
SN12C = assay: cells; settings: Homo sapiens, 48 h
SK-MEL-28 = assay: cells; settings: Homo sapiens, SK-MEL-28, 48 h
DB = assay: Eurofins OncoPanel (CellTiter-Glo); format: cell-based; settings: Homo sapiens, 72 h, 3 days
IGROV1 = assay: cells; format: cell-based; settings: Homo sapiens, IGROV-1, NCI-60, 48 h
Hs 294T = assay: Eurofins OncoPanel (CellTiter-Glo); format: cell-based; settings: Homo sapiens, 72 h, 3 days
SNB-75 = assay: cells; settings: Homo sapiens, SNB-75, 48 h
H9 = assay: Eurofins OncoPanel (CellTiter-Glo); format: cell-based; settings: Homo sapiens, 72 h, 3 days
[2] = system: BB5 patient biopsy derived cell line (breast adenocarcinoma); assay: BB1 and BB5 adenoma versus carcinoma screen (confocal imaging); format: cell-based; settings: Homo sapiens, 60 h, percent ChromaLive negative
U2OS = assay: Eurofins OncoPanel (CellTiter-Glo); format: cell-based; settings: Homo sapiens, 72 h, 3 days
Hennes 20 cells = assay: High density/low density 'arrest of proliferation' assay; format: cell-based, Chinese hamster; settings: Hennes 20, 72 h, AlamarBlue
[3] = system: BB1 patient biopsy derived cell line (benign adenoma); assay: BB1 and BB5 adenoma versus carcinoma screen (confocal imaging); format: cell-based, human; settings: Homo sapiens, 60 h, percent ChromaLive negative
SK-MEL-2 = assay: cells; settings: Homo sapiens, SK-MEL-2, 48 h
LNCaP C-33 cells = assay: Cell growth recovery assay; format: cell-based, human; settings: PAV-617 0.3 µM 24 h, PAV-951 0.4 µM 6 h, followed
SR = assay: cells; settings: Homo sapiens, 48 h
U251 = assay: cells; settings: Homo sapiens, U-251, 48 h
M14 = assay: cells; format: cell-based; settings: Homo sapiens, NCI-60, 48 h
NCI-H460 = assay: cells; format: cell-based; settings: Homo sapiens, NCI-60, 48 h
MALME-3M = assay: cells; format: cell-based; settings: Homo sapiens, NCI-60, 48 h
SNB-19 = assay: cells; settings: Homo sapiens, SNB-19, 48 h
MeWo = assay: Eurofins OncoPanel (CellTiter-Glo); settings: Homo sapiens, 72 h
NCI-H23 = assay: cells; settings: Homo sapiens, NCI-H23, 48 h
[4] = system: A549 human lung cancer xenograft; settings: mouse, in vivo
FaDu = assay: Eurofins OncoPanel (CellTiter-Glo); format: cell-based; settings: Homo sapiens, 72 h, 3 days
KM12 = assay: cells; settings: Homo sapiens, KM12, 48 h
CAKI-1 = assay: cells; format: cell-based; settings: Homo sapiens, NCI-60, 48 h
in vivo = settings: female, Balb/c, mouse, ip
HOP-62 = assay: cells; format: cell-based; settings: Homo sapiens, NCI-60, 48 h
SU-DHL-10 = assay: Eurofins OncoPanel (CellTiter-Glo); format: cell-based; settings: Homo sapiens, SU-DHL10, 72 h, 3 days
K-562 = assay: cells; format: cell-based; settings: Homo sapiens, K562, NCI-60, 48 h
RXF 393 = assay: cells; settings: Homo sapiens, RXF 393, 48 h
BFTC-905 = assay: Eurofins OncoPanel (CellTiter-Glo); format: cell-based; settings: Homo sapiens, 72 h, 3 days
LOX IMVI = assay: cells; settings: Homo sapiens, 48 h

CC(C)CCNc1ncnc2cc(N3CCN(c4ccc5c(NCCC(C)C)ncnc5c4)CC3)ccc12 [PAV-951]
GI50 (OVCAR-4): 452 nM | CC50 (OVCAR-4; read-out: LC50): 4560 nM | GI50 (SF-268): 217 nM | CC50 (SF-268; read-out: LC50): 2010 nM | change of potency when compound is added at the time of plating rather than 24 h later (A549; A549): increased significantly | IC50 (A549; A549 (treatment 0 h after plating)): 2160 nM | IC50 (A549; A549 (treatment 24 h after plating), 72 h): 10900 nM | tumour growth inhibition (TGI) [1]: 72% | GI50 (EKVX): 1750 nM | CC50 (EKVX; read-out: LC50): 6120 nM | EC50 (NL4-3 Rluc HIV): 660 nM | GI50 (SF-295): 1640 nM | CC50 (SF-295; read-out: LC50): 5590 nM | GI50 (786-0): 339 nM | GI50 (SN12C): 280 nM | CC50 (SN12C; read-out: LC50): 3410 nM | GI50 (SK-MEL-28): 1330 nM | CC50 (SK-MEL-28; read-out: LC50): 5240 nM | IC50 (DB): 895 nM | GI50 (IGROV1): 287 nM | IC50 (Hs 294T): 1100 nM | GI50 (SNB-75): 304 nM | CC50 (SNB-75; read-out: LC50): 4140 nM | IC50 (H9): 165 nM | IC50 [2]: 500 nM | IC50 (U2OS): 368 nM | inhibitory effect at low (500 cells per well) versus high (15 000 cells per well) density (Hennes 20 cells): difference between their inhibitory effects on low and high density-plated Hennes 20 cells | IC50 [3]: 3350 nM | GI50 (SK-MEL-2): 1650 nM | CC50 (SK-MEL-2; read-out: LC50): 5910 nM | recovery of cell growth after removal of compound (LNCaP C-33 cells): did not recover | GI50 (SR): 51.9 nM | CC50 (SR; read-out: LC50): 1900 nM | GI50 (U251): 213 nM | CC50 (U251; read-out: LC50): 910 nM | GI50 (M14): 533 nM | GI50 (NCI-H460): 203 nM | GI50 (MALME-3M): 1520 nM | GI50 (SNB-19): 1170 nM | CC50 (SNB-19; read-out: LC50): 5180 nM | IC50 (MeWo): 1180 nM | GI50 (NCI-H23): 1470 nM | CC50 (NCI-H23; read-out: LC50): 5620 nM | adverse effects at the doses of the xenograft studies [4]: without any serious adverse effects | IC50 (FaDu): 523 nM | GI50 (KM12): 227 nM | CC50 (KM12; read-out: LC50): 3850 nM | GI50 (CAKI-1): 311 nM | MTD (in vivo): 2.5 mg/kg | GI50 (HOP-62): 358 nM | IC50 (SU-DHL-10): 231 nM | GI50 (K-562): 131 nM | GI50 (RXF 393): 448 nM | IC50 (BFTC-905): 701 nM | GI50 (LOX IMVI): 183 nM | CC50 (LOX IMVI; read-out: LC50): 684 nM
